# Measured values: the supplement of paper PMC10307832
# Columns and labels:
# Assay in all cases: relative viability (nuclei count vs DMSO), 5 days (fraction); higher = more cells survive
# RAF265 + Crizotinib = compound: Cn1c(Nc2ccc(C(F)(F)F)cc2)nc2cc(Oc3ccnc(-c4ncc(C(F)(F)F)[nH]4)c3)ccc21 [RAF265] + C[C@@H](Oc1cc(-c2cnn(C3CCNCC3)c2)cnc1N)c1c(Cl)ccc(F)c1Cl [Crizotinib] (partner 1 µM)
# Outline: (§1)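 Lung cancer cell lines were pin-tool dosed in 1536-well plates on the day after seeding, with either a lone drug or a fixed anchor-drug dose plus five library-drug doses (not always all listed) in √10 steps. Nuclei were counted on 4× images after 5 days. Relative viability is the ratio of treated-well to vehicle-well nuclei counts, with each value a median of duplicate plates.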
# RAF265 + Vorinostat = compound: Cn1c(Nc2ccc(C(F)(F)F)cc2)nc2cc(Oc3ccnc(-c4ncc(C(F)(F)F)[nH]4)c3)ccc21 [RAF265] + O=C(CCCCCCC(=O)Nc1ccccc1)NO [Vorinostat] (partner 1 µM)
# Outline: as §1
# IPA-3 + OSI-027 = compound: C1=CC=C2C(=C1)C=CC(=C2SSC3=C(C=CC4=CC=CC=C43)O)O [IPA-3] + COc1cccc2cc(-c3nc([C@H]4CC[C@H](C(=O)O)CC4)n4ncnc(N)c34)[nH]c12 [OSI-027] (partner 0.5 µM)
# Outline: as §1
# Doramapimod + Tozasertib = compound: Cc1ccc(-n2nc(C(C)(C)C)cc2NC(=O)Nc2ccc(OCCN3CCOCC3)c3ccccc23)cc1 [Doramapimod] + Cc1cc(Nc2cc(N3CCN(C)CC3)nc(Sc3ccc(NC(=O)C4CC4)cc3)n2)n[nH]1 [Tozasertib] (partner 0.1 µM)
# Outline: as §1
Cell Line,relative viability (RAF265 + Crizotinib; first compound 0.01 µM),relative viability (RAF265 + Crizotinib; first compound 0.1 µM),relative viability (RAF265 + Crizotinib; first compound 0.3162 µM),relative viability (RAF265 + Crizotinib; first compound 1 µM),relative viability (RAF265 + Vorinostat; first compound 0.01 µM),relative viability (RAF265 + Vorinostat; first compound 0.03162 µM),relative viability (RAF265 + Vorinostat; first compound 0.1 µM),relative viability (RAF265 + Vorinostat; first compound 0.3162 µM),relative viability (RAF265 + Vorinostat; first compound 1 µM),relative viability (IPA-3 + OSI-027; first compound 0.2 µM),relative viability (IPA-3 + OSI-027; first compound 0.6325 µM),relative viability (IPA-3 + OSI-027; first compound 2 µM),relative viability (IPA-3 + OSI-027; first compound 6.325 µM),relative viability (IPA-3 + OSI-027; first compound 20 µM),relative viability (Doramapimod + Tozasertib; first compound 0.02 µM),relative viability (Doramapimod + Tozasertib; first compound 0.06325 µM),relative viability (Doramapimod + Tozasertib; first compound 0.2 µM),relative viability (Doramapimod + Tozasertib; first compound 0.6325 µM),relative viability (Doramapimod + Tozasertib; first compound 2 µM),relative viability (RAF265 + Crizotinib; first compound 0.03162 µM)
HOP-62,0.972,0.714,0.772,0.629,0.664,0.542,0.56,0.507,0.332,0.985,0.808,0.937,0.783,0.616,0.386,0.356,0.382,0.424,0.28,–
NCI-H650,0.886,0.684,0.808,0.317,0.442,0.418,0.42,0.277,0.232,0.561,0.534,0.521,0.521,0.566,0.757,0.823,0.804,0.798,0.654,0.722
NCI-H358,0.618,0.5,0.395,0.23,0.744,0.564,0.613,0.459,0.178,0.895,0.733,0.746,0.69,0.758,0.0934,0.0925,0.101,0.105,0.109,0.597
BEN,0.955,0.961,1.07,0.821,0.569,0.586,0.6,0.662,0.544,0.309,0.295,0.288,0.302,0.333,0.533,0.402,0.499,0.325,0.429,0.911
SW 1573,0.869,0.842,0.663,0.406,1,0.763,0.834,0.792,0.582,0.867,0.385,0.528,0.634,0.183,0.267,0.208,0.198,0.22,0.157,0.632
ChaGo-K-1,1.15,1.18,1.05,0.792,0.783,0.826,0.727,0.635,0.578,0.708,0.551,0.574,0.603,0.628,0.225,0.227,0.229,0.215,0.217,1.15
SK-MES-1,1,0.919,0.334,0.242,1.12,0.772,0.519,0.398,0.343,0.722,0.581,0.635,0.521,0.423,0.94,0.869,0.81,0.856,0.781,0.88
NCI-H1755,0.837,0.813,0.685,0.476,0.8,0.663,0.694,0.579,0.476,0.831,0.616,0.688,0.607,0.702,0.581,0.58,0.597,0.611,0.469,0.757
NCI-H2023,0.624,0.88,0.668,0.478,0.59,0.501,0.707,0.515,0.381,0.507,0.352,0.415,0.54,0.421,0.333,0.352,0.3,0.304,0.247,0.58
LC-2-ad,0.451,0.492,0.474,0.305,0.774,0.7,0.729,0.596,0.387,0.937,0.878,0.858,0.871,1.02,0.447,0.444,0.448,0.413,0.484,0.442
NCI-H1666,1.11,1.06,0.971,0.651,1.13,0.923,0.906,0.99,0.854,0.976,0.839,0.828,0.743,0.87,0.642,0.687,0.641,0.624,0.597,1.08
201T,1.08,1.05,1.06,1.08,0.975,0.966,0.998,0.974,0.994,0.741,0.683,–,0.743,0.755,0.914,0.918,0.935,1.05,0.906,0.996
NCI-H2009,1.07,0.96,0.805,0.629,0.744,0.649,0.757,0.761,0.512,0.918,0.6,0.649,0.59,0.359,0.727,0.799,0.696,0.663,0.556,0.91
NCI-H2228,0.382,0.333,0.356,0.321,0.554,0.653,0.52,0.324,0.275,0.991,0.476,0.62,0.559,0.435,0.263,0.296,0.258,0.263,0.242,0.369
LU99A,0.576,0.521,0.344,0.255,0.515,0.447,0.402,0.286,0.261,0.273,0.323,0.286,0.323,0.315,0.307,0.248,0.294,0.252,0.264,0.467
NCI-H1437,0.902,0.998,1.05,0.768,0.823,0.778,0.947,0.887,0.715,1.1,0.942,0.68,0.989,1.17,0.416,0.431,0.394,0.404,0.401,0.808
